Source: article PMC5107132 (European journal of pharmacology, 2016)

System: Wistar rats
Assay: Spontaneous locomotor activity
Type: in vivo, rat
Details: 15 mg/kg i.p., 45 min

For C#Cc1ccc2c(c1)C(c1ccccc1F)=N[C@H](C)c1c(C(=O)NC)ncn1-2 [MP-III-022, (R)-8-Ethynyl-6-(2-fluorophenyl)-N,4-dimethyl-4H-benzo[f]imidazo[1,5-a][1,4]diazepine-3-carboxamide], the “Spontaneous locomotor activity, total distance traveled” value was “slight hyperlocomotion”.
